Source: article PMC10763615, “Identification and engineering of potent cyclic peptides with selective or promiscuous binding through biochemical profiling and bioinformatic data analysis” (RSC Chemical Biology, 2023)
Like-named read-outs stand apart in the source and are kept apart here.

How the values were obtained:
FGF-R1C ECD [1] = molecular target: T1, FGF-R1C ECD (Homo sapiens, UniProt P11362); experiment: biochemical; type: binding; set-up: DNA constructs for the extracellular domain (ECD) of human FGF-; HPC4 (C); made in house; host or cells: HEK 293-6E
T1 sequence (P11362 22-376 limits assumed): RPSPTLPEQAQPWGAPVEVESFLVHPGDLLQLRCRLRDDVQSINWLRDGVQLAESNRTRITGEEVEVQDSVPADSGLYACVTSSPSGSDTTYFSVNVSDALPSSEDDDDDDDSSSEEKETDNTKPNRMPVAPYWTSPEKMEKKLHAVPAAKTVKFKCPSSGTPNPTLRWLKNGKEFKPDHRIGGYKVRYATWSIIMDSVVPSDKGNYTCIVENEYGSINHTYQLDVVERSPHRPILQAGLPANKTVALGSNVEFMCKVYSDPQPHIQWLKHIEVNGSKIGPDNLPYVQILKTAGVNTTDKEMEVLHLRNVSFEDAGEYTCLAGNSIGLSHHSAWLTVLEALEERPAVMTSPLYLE
Outline: (§1)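 BLI, streptavidin sensors loaded with biotinylated receptor ECD. Single-point: ~1 μM crude peptide, PBS pH7.4/0.05% Tween-20/0.01% BSA; association then dissociation in buffer. KD corrected for UPLC-CAD-determined concentration.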

FGF-R3C ECD [2] = molecular target: T2, FGF-R3C ECD (Homo sapiens, UniProt P22607); experiment: biochemical; type: binding; set-up: DNA constructs for the extracellular domain (ECD) of human FGF-; HPC4 (C); made in house; host or cells: HEK 293-6E
T2 sequence (P22607 23-375 limits assumed): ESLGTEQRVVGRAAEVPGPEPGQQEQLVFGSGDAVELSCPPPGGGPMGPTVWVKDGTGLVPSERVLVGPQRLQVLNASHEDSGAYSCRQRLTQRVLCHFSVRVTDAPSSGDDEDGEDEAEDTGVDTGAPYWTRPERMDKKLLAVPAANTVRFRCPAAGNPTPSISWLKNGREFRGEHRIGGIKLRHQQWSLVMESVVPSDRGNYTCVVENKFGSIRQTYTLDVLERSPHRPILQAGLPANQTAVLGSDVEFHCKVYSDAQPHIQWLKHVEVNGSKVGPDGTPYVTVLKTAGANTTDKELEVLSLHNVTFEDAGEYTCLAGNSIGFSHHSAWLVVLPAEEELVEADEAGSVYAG
Outline: as §1

FGF-R4 ECD [3] = molecular target: T3, FGF-R4 ECD (Homo sapiens, UniProt P22455); experiment: multi-concentration BLI of purified peptides; type: binding; settings: purified NNK library peptides
T3 construct: DNA constructs for the extracellular domain (ECD) of human FGF-; HPC4 (C); made in house; host or cells: HEK 293-6E
T3 sequence (P22455 22-369 limits assumed): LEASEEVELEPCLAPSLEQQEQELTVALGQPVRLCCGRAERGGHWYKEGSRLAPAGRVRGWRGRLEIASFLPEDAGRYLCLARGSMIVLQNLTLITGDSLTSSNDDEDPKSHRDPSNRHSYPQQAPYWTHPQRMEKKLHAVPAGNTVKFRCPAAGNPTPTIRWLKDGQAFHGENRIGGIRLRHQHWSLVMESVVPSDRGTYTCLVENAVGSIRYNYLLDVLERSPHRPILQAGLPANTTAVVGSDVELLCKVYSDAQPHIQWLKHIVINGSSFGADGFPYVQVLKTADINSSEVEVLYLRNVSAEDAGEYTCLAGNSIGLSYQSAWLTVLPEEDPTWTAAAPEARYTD
Outline: (§2)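 Biolayer interferometry with biotinylated FGF-R ECD on streptavidin biosensors in PBS pH 7.4, 0.05% Tween-20, 0.01% BSA. Multi-concentration: purified peptide dilution series fitted to a multi-point KD model.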

[4] = molecular target: T4, FGFR3c/BKL (Fc-fused human FGF-R3alpha(IIIc) with beta-klotho) (Homo sapiens, UniProt P22607); experiment: AlphaScreen FGF21 competitive binding assay
T4 sequence (P22607 23-375 limits assumed): T2 sequence (P22607 23-375 limits assumed)
Procedure: Alphascreen binding assay
(§3) The competitive binding assay was carried out according to the methods detailed in Hansen. et al using
(§4) AlphaScreen.3 All reagents and samples were prepared in assay buffer: 40mM Hepes, 140mM NaCl, 1mM
(§5) CaCl2, 0,05% Tween20, pH=7.5, 0.1% BSA. In brief, recombinant human beta-klotho (R&D Systems) was
(§6) preincubated for 60 min with the ectodomain, either Fc-fused human FGF-R1alpha(IIIc), FGF-R3alpha(IIIc)
(§7) or FGF-R4 (R&D Systems), and the mixture was added to the test peptides in OptiPlate™ (PerkinElmer).
(§8) Biotinylated FGF21 and heparin were further added to each well. AlphaScreen bead mix (1:1 mix of Protein
(§9) A acceptor beads/ streptavidin-coated donor beads, PerkinElmer) were added to each well incubated
(§10) overnight at RT in the dark, and measured on a plate reader (Envision). Assays were carried out in triplicates
(§11) with concentrations ranging from 3, 10, 30, 100, 300 ,1000 and 3000 nM of peptide. No peptide control
(§12) (media only) was used as a negative control, and unlabeled FGF21 and FGF1 as positive control.
(§13) competing with biotinylated natural FGF21 ligand.

[5] = molecular target: T5, FGFR1c/KLB (Fc-fused human FGF-R1alpha(IIIc) with beta-klotho) (Homo sapiens, UniProt P11362); experiment: AlphaScreen FGF21 competitive binding assay
T5 sequence (P11362 22-376 limits assumed): T1 sequence (P11362 22-376 limits assumed)
Procedure: Alphascreen binding assay
as §3, §4, §5, §6, §7, §8, §9, §10, §11, §12, §13

FGF-R4 ECD [6] = molecular target: T3, FGF-R4 ECD; experiment: single concentration BLI of crude peptides; type: binding; settings: crude NNK peptides, single concentration BLI (Table S3); read-out: KD (4)
Outline: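 Streptavidin biosensors carrying biotinylated FGF receptor ECD were immersed in peptide (~1 μM for crude single-point runs, a concentration series for purified peptides) and then in peptide-free buffer. KD was obtained by fitting the BLI association and dissociation curves.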

FGF-R1C ECD [7] = molecular target: T1, FGF-R1C ECD; experiment: biochemical
Outline: as §2

FGF-R3C ECD [8] = molecular target: T2, FGF-R3C ECD; experiment: biochemical
Outline: as §2

[9] = molecular target: T6, FGFR4/KLB (Fc-fused human FGF-R4 with beta-klotho) (Homo sapiens, UniProt P22455); experiment: AlphaScreen FGF21 competitive binding assay
T6 sequence (P22455 22-369 limits assumed): T3 sequence (P22455 22-369 limits assumed)

SMILES | Kd (FGF-R1C ECD [1]) | Kd (FGF-R3C ECD [2]) | Kd (FGF-R4 ECD [3]) | IC50 [4] | IC50 [5] | Kd (FGF-R4 ECD [6]) | Kd (FGF-R1C ECD [7]) | Kd (FGF-R3C ECD [8]) | IC50 [9] | R3C competitive IC50 (nM) ([4]; purified peptides, Alphascreen vs biotinylated FGF21) | R3C KD (nM) (FGF-R3C ECD [8]; purified NNK library peptides, multi-concentration BLI)
CC[C@H](C)[C@@H]1NC(=O)[C@@H](NC(=O)[C@H](CCSC)NC(C)=O)CSSC[C@@H](C(=O)NCC(=O)N[C@@H](CO)C(=O)NCC(=O)N[C@@H](CO)C(=O)N[C@@H](CC(=O)O)C(=O)N[C@@H](Cc2ccc(O)cc2)C(=O)N[C@@H](CCCCN)C(=O)N[C@@H](CC(=O)O)C(=O)N[C@@H](CC(=O)O)C(=O)N[C@@H](CC(=O)O)C(=O)N[C@@H](CC(=O)O)C(=O)N[C@@H](CCCCN)C(N)=O)NC(=O)[C@H](Cc2ccccc2)NC(=O)[C@H](CCCNC(=N)N)NC(=O)[C@H](CCCCN)NC(=O)[C@H](Cc2c[nH]cn2)NC(=O)[C@H](C)NC(=O)[C@H](CC(C)C)NC(=O)[C@H](Cc2ccccc2)NC(=O)[C@H](CCSC)NC(=O)[C@H](CCCCN)NC1=O [4.6] | > 10 µM | > 10 µM | 0.358 µM | > 1 µM | > 1 µM | 0.097 µM | > 1 µM | > 1 µM | > 1 µM | – | –
CC[C@H](C)[C@@H]1NC(=O)[C@@H](NC(=O)[C@H](CCSC)NC(C)=O)CSSC[C@@H](C(=O)NCC(=O)N[C@@H](CO)C(=O)NCC(=O)N[C@@H](CO)C(=O)N[C@@H](CC(=O)O)C(=O)N[C@@H](Cc2ccc(O)cc2)C(=O)N[C@@H](CCCCN)C(=O)N[C@@H](CC(=O)O)C(=O)N[C@@H](CC(=O)O)C(=O)N[C@@H](CC(=O)O)C(=O)N[C@@H](CC(=O)O)C(=O)N[C@@H](CCCCN)C(N)=O)NC(=O)[C@H](CCC(=O)O)NC(=O)[C@H](C(C)C)NC(=O)[C@H](Cc2c[nH]c3ccccc23)NC(=O)[C@H](Cc2ccccc2)NC(=O)[C@H](CC(=O)O)NC(=O)[C@H](CO)NC(=O)[C@H](CC(C)C)NC(=O)[C@H](CCCNC(=N)N)NC(=O)[C@H](Cc2ccc(O)cc2)NC1=O [1C.7] | 0.047 µM | 0.281 µM | > 1 µM | 0.631 µM | 0.473 µM | 0.045 µM | > 1 µM | > 1 µM | 0.406 µM | – | –
CSCC[C@H](NC(C)=O)C(=O)N[C@H]1CSSC[C@@H](C(=O)NCC(=O)N[C@@H](CO)C(=O)NCC(=O)N[C@@H](CO)C(=O)N[C@@H](CC(=O)O)C(=O)N[C@@H](Cc2ccc(O)cc2)C(=O)N[C@@H](CCCCN)C(=O)N[C@@H](CC(=O)O)C(=O)N[C@@H](CC(=O)O)C(=O)N[C@@H](CC(=O)O)C(=O)N[C@@H](CC(=O)O)C(=O)N[C@@H](CCCCN)C(N)=O)NC(=O)[C@H](C(C)C)NC(=O)[C@H](CC(C)C)NC(=O)[C@H](CC(C)C)NC(=O)[C@H](Cc2c[nH]c3ccccc23)NC(=O)[C@H](Cc2ccc(O)cc2)NC(=O)[C@H](Cc2ccccc2)NC(=O)[C@H](CC(C)C)NC(=O)[C@H](CCCNC(=N)N)NC(=O)[C@H](CCC(=O)O)NC(=O)[C@@H]2CCCN2C1=O [4.7] | > 10 µM | > 10 µM | 0.443 µM | > 1 µM | > 1 µM | 0.068 µM | > 1 µM | > 1 µM | > 1 µM | – | –
CC[C@H](C)[C@@H]1NC(=O)[C@@H](NC(=O)[C@H](CCSC)NC(C)=O)CSSC[C@@H](C(=O)NCC(=O)N[C@@H](CO)C(=O)NCC(=O)N[C@@H](CO)C(=O)N[C@@H](CC(=O)O)C(=O)N[C@@H](Cc2ccc(O)cc2)C(=O)N[C@@H](CCCCN)C(=O)N[C@@H](CC(=O)O)C(=O)N[C@@H](CC(=O)O)C(=O)N[C@@H](CC(=O)O)C(=O)N[C@@H](CC(=O)O)C(=O)N[C@@H](CCCCN)C(N)=O)NC(=O)[C@H](C(C)C)NC(=O)[C@H](C(C)C)NC(=O)[C@H](Cc2c[nH]c3ccccc23)NC(=O)[C@H](Cc2ccccc2)NC(=O)[C@H](CC(=O)O)NC(=O)[C@H](CO)NC(=O)[C@H](CC(C)C)NC(=O)[C@H](CCCNC(=N)N)NC(=O)[C@H](Cc2ccc(O)cc2)NC1=O [1C.6] | 0.019 µM | 0.012 µM | 0.07 µM | 0.018 µM | 0.029 µM | 0.047 µM | 0.053 µM | 0.361 µM | 0.06 µM | – | –
CSCC[C@H](NC(C)=O)C(=O)N[C@H]1CSSC[C@@H](C(=O)NCC(=O)N[C@@H](CO)C(=O)NCC(=O)N[C@@H](CO)C(=O)N[C@@H](CC(=O)O)C(=O)N[C@@H](Cc2ccc(O)cc2)C(=O)N[C@@H](CCCCN)C(=O)N[C@@H](CC(=O)O)C(=O)N[C@@H](CC(=O)O)C(=O)N[C@@H](CC(=O)O)C(=O)N[C@@H](CC(=O)O)C(=O)N[C@@H](CCCCN)C(N)=O)NC(=O)[C@H](CO)NC(=O)[C@H](Cc2c[nH]cn2)NC(=O)[C@H](Cc2c[nH]c3ccccc23)NC(=O)[C@H](Cc2c[nH]cn2)NC(=O)[C@H](CCCNC(=N)N)NC(=O)[C@H]([C@@H](C)O)NC(=O)[C@H](Cc2ccc(O)cc2)NC(=O)[C@H](CC(C)C)NC(=O)[C@H](CC(N)=O)NC(=O)[C@H](Cc2c[nH]c3ccccc23)NC(=O)[C@H](CCC(N)=O)NC(=O)[C@H](CCC(N)=O)NC1=O [3C.4] | > 10 µM | > 10 µM | > 1 µM | 0.071 µM | > 1 µM | > 10 µM | > 1 µM | > 1 µM | > 1 µM | efficiently competes with FGF21 | could not detect any binding
CC[C@H](C)[C@@H]1NC(=O)[C@H](C(C)C)NC(=O)[C@H](Cc2c[nH]cn2)NC(=O)[C@@H](NC(=O)[C@H](CCSC)NC(C)=O)CSSC[C@@H](C(=O)NCC(=O)N[C@@H](CO)C(=O)NCC(=O)N[C@@H](CO)C(=O)N[C@@H](CC(=O)O)C(=O)N[C@@H](Cc2ccc(O)cc2)C(=O)N[C@@H](CCCCN)C(=O)N[C@@H](CC(=O)O)C(=O)N[C@@H](CC(=O)O)C(=O)N[C@@H](CC(=O)O)C(=O)N[C@@H](CC(=O)O)C(=O)N[C@@H](CCCCN)C(N)=O)NC(=O)[C@H](Cc2ccc(O)cc2)NC(=O)[C@H](CCCNC(=N)N)NC(=O)[C@H](Cc2c[nH]c3ccccc23)NC(=O)[C@H](CO)NC(=O)[C@H](CCCNC(=N)N)NC(=O)[C@H](Cc2c[nH]c3ccccc23)NC(=O)[C@H](CC(C)C)NC1=O [4.2] | > 10 µM | > 10 µM | 0.051 µM | > 1 µM | > 1 µM | 0.093 µM | > 1 µM | > 1 µM | 0.682 µM | – | –
